Key:
Aβtotal = experiment: In vivo efficacy Method 2: brain soluble Aβtotal by ELISA; design: species or system mouse; details: Table 4b, single oral dose, overnight fasted non-transgenic animals, sacrificed after 4 h, soluble fraction of brain homogenates
Text: (§1) To determine whether acute administration of an Aβ42 lowering agent would reduce Aβ42 levels in vivo, non-transgenic rodents, e.g. mice or rats were used. Animals treated with the Aβ42 lowering agent were examined and compared to those untreated or treated with vehicle and brain levels of soluble Aβ42 and total Aβ were quantitated by standard techniques, for example, using ELISA. Treatment periods varied from hours (h) to days and were adjusted based on the results of the Aβ42 lowering once a time course of onset of effect could be established.
(§2) A typical protocol for measuring Aβ42 lowering in vivo is shown but it is only one of many variations that could be used to optimize the levels of detectable Aβ. For example, Aβ42 lowering compounds were formulated in 20% of Captisol® (a sulfobutyl ether of β-cyclodextrin) in water or 20% hydroxypropyl β cyclodextrin. The Aβ42 lowering agents were administered as a single oral dose or by any acceptable route of administration to overnight fasted animals. After 4 h, the animals were sacrificed and Aβ42 levels were analysed.
(§3) Blood was collected by decapitation and exsanguinations in EDTA-treated collection tubes. Blood was centrifuged at 1900 g for 10 minutes (min) at 4° C. and the plasma recovered and flash frozen for later analysis. The brain was removed from the cranium and hindbrain. The cerebellum was removed and the left and right hemisphere were separated. The left hemisphere was stored at −18° C. for quantitative analysis of test compound levels. The right hemisphere was rinsed with phosphate-buffered saline (PBS) buffer and immediately frozen on dry ice and stored at −80° C. until homogenization for biochemical assays.
(§4) Mouse brains from non-transgenic animals were resuspended in 8 volumes of 0.4% DEA (diethylamine)/50 mM NaCl containing protease inhibitors (Roche-11873580001 or 04693159001) per gram of tissue, e.g. for 0.158 g brain, add 1.264 ml of 0.4% DEA. All samples were homogenized in the FastPrep-24 system (MP Biomedicals) using lysing matrix D (MPBio #6913-100) at 6 m/s for 20 seconds. Homogenates were centrifuged at 221.300×g for 50 min. The resulting high speed supernatants were then transferred to fresh eppendorf tubes. Nine parts of supernatant were neutralized with 1 part 0.5 M Tris-HCl pH 6.8 and used to quantify Aβtotal and Aβ42.
(§5) To quantify the amount of Aβtotal and Aβ42 in the soluble fraction of the brain homogenates, Enzyme-Linked-Immunosorbent-Assays were used . Briefly, the standards (a dilution of synthetic Aβ1-40 and Aβ1-42, Bachem) were prepared in 1.5 ml Eppendorf tube in Ultraculture, with final concentrations ranging from 10000 to 0.3 pg/ml. The samples and standards were co-incubated with HRPO-labelled N-terminal antibody for Aβ42 detection and with the biotinylated mid-domain antibody 4G8 for Aβtotal detection. 50 μl of conjugate/sample or conjugate/standards mixtures were then added to the antibody-coated plate (the capture antibodies selectively recognize the C-terminal end of Aβ42, antibody JRF/cAβ42/26, for Aβ42 detection and the N-terminus of Aβ, antibody JRF/rAβ/2, for Aβtotal detection). The plate was allowed to incubate overnight at 4° C. in order to allow formation of the antibody-amyloid complex. Following this incubation and subsequent wash steps the ELISA for Aβ42 quantification was finished by addition of Quanta Blu fluorogenic peroxidase substrate according to the manufacturer's instructions (Pierce Corp., Rockford, Ill.). A reading was performed after 10 to 15 min (excitation 320/emission 420).
For Aβtotal detection, a Streptavidine-Peroxidase-Conjugate was added, followed 60 min later by an additional wash step and addition of Quanta Blu fluorogenic peroxidase substrate according to the manufacturer's instructions (Pierce Corp., Rockford, Ill.). A reading was performed after 10 to 15 min (excitation 320 nm/emission 420 nm).

Aβ42 = experiment: In vivo efficacy Method 2: brain soluble Aβ42 by ELISA; design: species or system mouse; details: Table 4b, single oral dose, overnight fasted non-transgenic animals, sacrificed after 4 h, soluble fraction of brain homogenates
Text: as §1, §2, §3, §4, §5
In this model at least 20% Aβ42 lowering compared to untreated animals would be advantageous.

| Compound | Aβtotal (% Ctrl) _Mean (Aβtotal) | Aβ42 (% Ctrl) _Mean (Aβ42) |
| --- | --- | --- |
| COc1nc(Nc2cccc3c2nc(-c2ccc(F)cc2)n3C)ccc1-n1cnc(C)c1 [Compound 15] | 82 % Ctrl | 39 % Ctrl |
| COc1cc(Nc2cc(C(C)C)nc3c2nc(-c2ccc(F)cc2)n3C)ccc1-n1cnc(C)n1 [Compound 110] | 106 % Ctrl | 78 % Ctrl |
